# Results taken from patent publication US12343335B2, “Pharmaceutical composition for treating multiple sclerosis on basis of AMPK inhibitory function and zinc homeostasis control function” (ZINCURE CORP., priority 2019, dated 2025).
# Tests used:
# Format in all cases: in vivo, C57BL/6 female mice
# spinal cord of EAE mice = assay: Cresyl violet staining of spinal cord of EAE mice (mononuclear cell infiltration); settings: spinal cord white matter, day 21 after EAE induction, vs vehicle
# Experimental: (§1) The present inventors induced experimental autoimmune encephalomyelitis (EAE), an animal model of multiple sclerosis, by subcutaneously injecting Myelin oligodendrocyte glycoprotein 35-55 (MOG35-55) peptide antigen into C57BL/6 female mice (FIG. 1A). For this, MOG35-55 (Ana spec, USA) and Complete freund's adjuvant (CFA) were first prepared, and MOG35-55 (2 mg/ml) was dissolved in Phosphate buffered saline (lx PBS, Sigma), and then the 25 ml of CFA was prepared by dispending 25 ml of incomplete freund's adjuvant (IFA. Sigma) in a 50 ml conical tube. Then, in a fume hood, Mycobacterium tuberculosis H37Ra (100 mg; Difco, USA) was added to the IFA in order to prepare CFA and store it in the refrigerator after vortexing before use. Thereafter, MOG35-55 and CFA containing Mycobacterium tuberculosis H37Ra was mixed in the same amount and injected into both flanks of the mice. And then Pertussis toxin (4 μg/ml, List Biological Laboratories, USA) was injected intraperitoneally on the day of immunization and on the second day after immunization. After the immunization, the mice's body weight and clinical symptoms were measured every day, and the degree of EAE progression was evaluated based on specific clinical symptoms. More details on this are provided below. […]
# [1] = test system: MOG35-55-induced experimental autoimmune encephalomyelitis (EAE); assay: EAE clinical symptom assessment and incidence rate, 21 days after immunization; settings: EAE mice, 1H10 intraperitoneally once a day, vs vehicle
# Description: The experimental animals used in the present invention are an 8-week-old, C57BL/6 female mice supplied from Dae Han BioLink, Co., Ltd. (Korea). These mice were bred in an environment controlled by temperature and humidity, and feed and water were fed freely.
# as §1, with “Thereafter, MOG35-55 and CFA containing Mycobacterium tuberculosis H37Ra was mixed in the same amount and injected into both flanks of the mice. And then Pertussis toxin (4 μg/ml, List Biological Laboratories, USA) was injected intraperitoneally on the day of immunization and on the second day after immunization.” left out, “symptoms.” for “symptoms. More details on this are provided below.”
# (§2) EAE clinical symptom was evaluated based on previous studies (Jones et al., J. Neuroimmunol. 199(1-2): 83-93. 2008). […]
# [2] = test system: MOG35-55-induced experimental autoimmune encephalomyelitis (EAE); assay: Long-term EAE model, 45 days after initial immunization; settings: intraperitoneally once a day
# Experimental: (§3) The present inventors induced experimental autoimmune encephalomyelitis (EAE), an animal model of multiple sclerosis, by subcutaneously injecting Myelin oligodendrocyte glycoprotein 35-55 (MOG35-55) peptide antigen into C57BL/6 female mice (FIG. 1A). For this, MOG35-55 (Ana spec, USA) and Complete freund's adjuvant (CFA) were first prepared, and MOG35-55 (2 mg/ml) was dissolved in Phosphate buffered saline (lx PBS, Sigma), and then the 25 ml of CFA was prepared by dispending 25 ml of incomplete freund's adjuvant (IFA. Sigma) in a 50 ml conical tube. Then, in a fume hood, Mycobacterium tuberculosis H37Ra (100 mg; Difco, USA) was added to the IFA in order to prepare CFA and store it in the refrigerator after vortexing before use. Thereafter, MOG35-55 and CFA containing Mycobacterium tuberculosis H37Ra was mixed in the same amount and injected into both flanks of the mice. And then Pertussis toxin (4 μg/ml, List Biological Laboratories, USA) was injected intraperitoneally on the day of immunization and on the second day after immunization. After the immunization, the mice's body weight and clinical symptoms were measured every day, and the degree of EAE progression was evaluated based on specific clinical symptoms. More details on this are provided below.
# as §2
# [3] = test system: spinal cord of MOG35-55 immunized EAE mice; assay: Immunofluorescence staining of spinal cord of EAE mice
# Experimental: as §3
# On the 21st day after EAE induction, the present inventors anesthetized mice with urethane and then perfused 4% paraformaldehyde into the heart to fix the spinal cord. After extracting the spinal cord, in order to examine demyelination of activity of microglia/macrophages the cell/macrophage activity of the tissue, immunofluorescence staining was performed with anti-myelin basic protein (MBP) and anti-F4/80 (Microglia/Macrophage) antibodies. In addition, anti-bodies against ionized calcium binding adapter molecule-1 (Iba-1) and anti-CD68 (Cluster of Differentiation 68) used as markers of microglia/macrophages to analyze the phenotype of strongly activated microglia/macrophages in the white matter part of the damaged spinal cord. Double immunofluorescence staining was performed using antibodies against CD8 and matrix metalloproteinase 9 (MMP-9) in order to investigate how AMP-activated protein kinase (AMPK) activity affects the survival of these cells. In addition, double immunofluorescence staining was performed using anti-CD8 and anti-phospho-AMPK antibodies to determine how AMP-activated protein kinase (AMPK) activity affects the survival of these cells in T cells infiltrating the spinal cord. In order to compare and analyze the activity of (MMP-9), immunofluorescence staining was performed using anti-MMP-9 antibodies. To examine the activity of astrocytes in the spinal cord, immunofluorescence staining was performed using anti-glial fibrillary acidic protein (GFAP) antibodies. To compare and analyze the expression of cytokines such as tumor necrosis factor (TNF) alpha and interferon (IFN) gamma, double immunofluorescence staining was performed using anti-TNF-alpha and anti-IFN gamma antibodies. In the same manner as the immunohistochemical method described above, the cryosections were reacted with 3% hydrogen peroxide at room temperature for 15 minutes to remove endogenous peroxidase, and then the primary antibodies, rat anti-MBP (1:200, Abcam, UK), anti-F4/80 (1:100, eBioscience, USA), goat anti-Iba1 (1:500, Abcam), anti-CD68 (1:100, Bio-Rad Laboratories, USA), anti-CD8 (1:50, BD Bioscience), anti-p-AMPK (1:100, Abcam), anti-MMP-9 (1:100, Abcam), anti-GFAP (1:500, Abcam), anti-IFN gamma (1:100, Invitrogen, USA), anti-TNF alpha (1:250, Abcam) antibodies were reacted for 15 hours at 4° C. Then, Alexa Fluor 488-, 594-, 647-conjugated secondary antibodies (1:250, Invitrogen, USA) suitable for the host of each primary antibodies were reacted at room temperature for 2 hours. […]
# [4] = spinal cord white matter, day 21 after EAE induction, compared to vehicle only
# [5] = spinal cord, day 21 after EAE induction, vs vehicle
smiles,measurement,setting,value
"O=C1N=C(Nc2cccc(O)c2)S/C1=C\c1c[nH]c2ccccc12 [1H10, (Z)-5-((1H-indol-3-yl)methylene)-2-((3-hydroxyphenyl)amino)thiazol-4(5H)-one]",mononuclear cell infiltration,spinal cord of EAE mice,significantly inhibited
same,behavioral disorders (EAE clinical score),[1],significantly inhibited
same,incidence rate,[1],suppressed
same,clinical symptoms,[2],significantly reduced
same,incidence rate,[2],significantly reduced
same,phosphorylation of AMPK in CD8+ T cells infiltrated into the spinal cord,"[3]; after EAE induction, vs vehicle",significantly decreased
same,activity of MMP-9,"[3]; spinal cord white matter, EAE, compared to vehicle only",inhibited
same,activity of astrocytes (GFAP),"[3]; spinal cord white matter, day 21, vs vehicle",significantly inhibited
same,expression of IFN gamma,[3]; [4],increased
same,expression of TNF alpha,[3]; [4],decreased
same,activated M1-type microglia/macrophages (Iba-1 and CD68 co-expression),"[3]; spinal cord, after EAE induction, vs vehicle",significantly reduced
same,EAE-induced demyelination (MBP staining),[3]; [5],significantly decreased
same,activity of microglia/macrophages (F4/80),[3]; [5],significantly decreased
